Assay results as given in ChEMBL document CHEMBL1201862, “PubChem BioAssay data set” (2004).
Values belong to the molecule of their own block, whether it stands above or below them. Active and inactive are the calls of the source.

Legend:
[1] = target: T1, Rac GTPase-activating protein 1 (Homo sapiens, UniProt Q9H0H5); experiment: MgcRacGAP GTPase-activating activity inhibitors, confirmation, biochemical, ADP Hunter fluorescence, primary and confirmatory (AID 624330); assay type: functional
T1 sequence (Q9H0H5 whole entry): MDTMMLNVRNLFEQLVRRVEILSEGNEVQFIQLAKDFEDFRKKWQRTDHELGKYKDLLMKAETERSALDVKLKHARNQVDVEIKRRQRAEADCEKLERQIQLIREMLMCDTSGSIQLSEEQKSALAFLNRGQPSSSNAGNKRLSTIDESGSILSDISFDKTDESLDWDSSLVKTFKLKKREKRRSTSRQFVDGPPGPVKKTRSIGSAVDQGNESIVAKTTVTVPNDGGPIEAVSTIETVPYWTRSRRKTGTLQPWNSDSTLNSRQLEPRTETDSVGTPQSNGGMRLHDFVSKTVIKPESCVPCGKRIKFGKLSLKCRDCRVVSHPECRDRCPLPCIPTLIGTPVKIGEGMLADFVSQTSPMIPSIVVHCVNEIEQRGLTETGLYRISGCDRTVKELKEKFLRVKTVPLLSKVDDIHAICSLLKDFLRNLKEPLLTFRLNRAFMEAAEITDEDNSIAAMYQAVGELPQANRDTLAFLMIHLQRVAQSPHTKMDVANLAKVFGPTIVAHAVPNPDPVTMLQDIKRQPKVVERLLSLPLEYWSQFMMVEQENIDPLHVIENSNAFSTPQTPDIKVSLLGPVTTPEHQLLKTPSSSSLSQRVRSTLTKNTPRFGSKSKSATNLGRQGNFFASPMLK

[2] = human group III sPLA2 inhibitors, dose response, biochemical, QFRET, IC50 (AID 743457);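 further: green fluorescence rise as the enzyme cleaves BODIPY PC-A2 in liposomes; potency for inhibition of the enzyme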
[3] = P. falciparum Dd2 growth inhibitors, dose response, SYBR Green, cherry-picked samples (AID 1159567); assay type: functional, cell-based
[4] = HepG2 cell cytotoxicity, dose response, cytotoxicity control, plate reader, dry powder samples (AID 1159569); assay type: functional, cell-based;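 further: inhibitor potency with signal falling toward the positive control level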
[5] = P. falciparum 3D7-ScDHODH growth inhibitors, dose response, SYBR Green, dry powder samples (AID 1159570); assay type: functional, cell-based;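 further: parasite growth measured after 72 hours of compound exposure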
[6] = P. falciparum ATP4 D1247Y mutant growth inhibitors, dose response, NITD609-resistant line, SYBR Green, dry powder (AID 1159571); assay type: functional, cell-based;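 further: parasites synchronized at ring stage by sorbitol before testing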
[7] = P. falciparum Dd2 growth inhibitors, dose response, SYBR Green, dry powder samples (AID 1159566); assay type: functional, cell-based;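 further: potency for growth inhibition with lower SYBR green DNA signal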
[8] = target: T2, 1-phosphatidylinositol 4,5-bisphosphate phosphodiesterase gamma-1 (Homo sapiens, UniProt P19174); experiment: Counterscreen for inhibitors of phospholipase C isozymes (PLC-B3): Fluorescence-based biochemical high throughput dose response assay to identify inhibitors of phospholipase C isozymes (PLC-gamma1).
T2 sequence (P19174 whole entry): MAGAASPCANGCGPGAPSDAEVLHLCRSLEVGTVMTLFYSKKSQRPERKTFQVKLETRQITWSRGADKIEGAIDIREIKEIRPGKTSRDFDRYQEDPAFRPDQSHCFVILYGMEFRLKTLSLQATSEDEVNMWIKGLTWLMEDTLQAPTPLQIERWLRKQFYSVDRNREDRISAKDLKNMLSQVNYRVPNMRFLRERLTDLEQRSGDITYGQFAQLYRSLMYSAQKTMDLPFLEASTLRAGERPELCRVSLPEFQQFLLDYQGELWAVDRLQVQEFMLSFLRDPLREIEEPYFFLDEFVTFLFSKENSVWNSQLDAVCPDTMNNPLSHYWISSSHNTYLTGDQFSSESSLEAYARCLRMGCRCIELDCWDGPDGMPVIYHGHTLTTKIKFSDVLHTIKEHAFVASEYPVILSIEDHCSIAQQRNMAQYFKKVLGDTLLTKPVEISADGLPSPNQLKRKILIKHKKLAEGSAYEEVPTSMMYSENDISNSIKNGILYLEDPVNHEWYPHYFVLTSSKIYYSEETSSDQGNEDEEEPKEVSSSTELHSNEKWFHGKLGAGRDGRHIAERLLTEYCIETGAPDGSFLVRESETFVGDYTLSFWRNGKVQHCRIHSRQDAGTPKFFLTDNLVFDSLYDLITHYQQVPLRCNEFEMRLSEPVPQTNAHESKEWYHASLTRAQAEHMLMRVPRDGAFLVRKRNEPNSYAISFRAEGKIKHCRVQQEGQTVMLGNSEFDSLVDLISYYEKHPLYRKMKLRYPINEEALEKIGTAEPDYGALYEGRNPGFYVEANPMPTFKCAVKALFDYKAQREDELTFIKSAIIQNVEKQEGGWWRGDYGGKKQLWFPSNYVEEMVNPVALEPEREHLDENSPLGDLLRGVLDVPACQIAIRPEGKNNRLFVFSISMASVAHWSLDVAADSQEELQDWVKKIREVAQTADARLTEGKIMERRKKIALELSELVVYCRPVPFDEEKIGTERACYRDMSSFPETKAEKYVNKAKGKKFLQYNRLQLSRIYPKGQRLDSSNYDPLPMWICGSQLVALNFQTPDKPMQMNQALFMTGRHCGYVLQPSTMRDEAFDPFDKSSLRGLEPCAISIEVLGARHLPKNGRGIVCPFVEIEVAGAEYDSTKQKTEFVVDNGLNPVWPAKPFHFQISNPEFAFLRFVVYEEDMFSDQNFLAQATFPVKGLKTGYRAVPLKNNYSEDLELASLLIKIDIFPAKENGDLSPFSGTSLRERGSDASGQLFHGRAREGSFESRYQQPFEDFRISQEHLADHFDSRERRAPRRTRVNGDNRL

[9] = target: T3, 1-phosphatidylinositol 4,5-bisphosphate phosphodiesterase beta-3 (Homo sapiens, UniProt Q01970); experiment: Fluorescence-based biochemical high throughput dose response assay to identify inhibitors of phospholipase C isozymes (PLC-B3).
T3 sequence (Q01970 whole entry): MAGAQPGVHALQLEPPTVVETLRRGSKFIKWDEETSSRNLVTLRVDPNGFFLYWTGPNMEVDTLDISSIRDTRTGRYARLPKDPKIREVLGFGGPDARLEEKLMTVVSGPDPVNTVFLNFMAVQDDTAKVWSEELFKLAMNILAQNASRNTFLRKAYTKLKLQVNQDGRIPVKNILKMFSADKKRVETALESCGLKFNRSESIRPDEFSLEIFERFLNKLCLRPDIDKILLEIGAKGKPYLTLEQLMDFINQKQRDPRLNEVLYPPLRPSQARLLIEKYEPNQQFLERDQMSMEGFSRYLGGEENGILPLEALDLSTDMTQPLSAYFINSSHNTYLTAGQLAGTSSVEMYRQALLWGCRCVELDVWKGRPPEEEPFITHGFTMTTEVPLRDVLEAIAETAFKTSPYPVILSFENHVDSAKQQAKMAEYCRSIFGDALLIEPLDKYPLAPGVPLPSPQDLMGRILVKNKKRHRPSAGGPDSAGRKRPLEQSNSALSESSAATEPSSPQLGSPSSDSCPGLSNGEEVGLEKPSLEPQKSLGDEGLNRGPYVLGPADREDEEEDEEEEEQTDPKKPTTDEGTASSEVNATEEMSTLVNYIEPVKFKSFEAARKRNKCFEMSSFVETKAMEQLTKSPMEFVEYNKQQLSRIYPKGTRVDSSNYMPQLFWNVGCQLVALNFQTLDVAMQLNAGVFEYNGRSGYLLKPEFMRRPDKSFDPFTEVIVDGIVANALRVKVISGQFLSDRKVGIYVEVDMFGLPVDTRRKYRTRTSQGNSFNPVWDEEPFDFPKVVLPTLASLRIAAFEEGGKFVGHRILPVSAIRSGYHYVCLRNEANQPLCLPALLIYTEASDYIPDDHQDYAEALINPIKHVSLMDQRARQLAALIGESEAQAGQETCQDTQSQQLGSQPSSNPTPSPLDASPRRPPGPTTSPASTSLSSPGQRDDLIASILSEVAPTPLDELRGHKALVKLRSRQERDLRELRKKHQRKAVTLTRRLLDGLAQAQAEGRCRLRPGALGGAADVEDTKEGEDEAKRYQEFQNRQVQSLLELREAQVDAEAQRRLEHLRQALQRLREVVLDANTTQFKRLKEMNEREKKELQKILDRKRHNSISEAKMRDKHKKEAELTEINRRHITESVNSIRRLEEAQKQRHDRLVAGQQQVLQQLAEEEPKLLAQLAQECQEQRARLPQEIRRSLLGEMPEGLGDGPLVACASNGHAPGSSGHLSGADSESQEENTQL

[10] = target: T4, Cytochrome P450 1A2 (Homo sapiens, UniProt P05177);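 further: PubChem cytochrome P450 panel assay, CYP1A2 panel member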
T4 sequence (P05177 whole entry): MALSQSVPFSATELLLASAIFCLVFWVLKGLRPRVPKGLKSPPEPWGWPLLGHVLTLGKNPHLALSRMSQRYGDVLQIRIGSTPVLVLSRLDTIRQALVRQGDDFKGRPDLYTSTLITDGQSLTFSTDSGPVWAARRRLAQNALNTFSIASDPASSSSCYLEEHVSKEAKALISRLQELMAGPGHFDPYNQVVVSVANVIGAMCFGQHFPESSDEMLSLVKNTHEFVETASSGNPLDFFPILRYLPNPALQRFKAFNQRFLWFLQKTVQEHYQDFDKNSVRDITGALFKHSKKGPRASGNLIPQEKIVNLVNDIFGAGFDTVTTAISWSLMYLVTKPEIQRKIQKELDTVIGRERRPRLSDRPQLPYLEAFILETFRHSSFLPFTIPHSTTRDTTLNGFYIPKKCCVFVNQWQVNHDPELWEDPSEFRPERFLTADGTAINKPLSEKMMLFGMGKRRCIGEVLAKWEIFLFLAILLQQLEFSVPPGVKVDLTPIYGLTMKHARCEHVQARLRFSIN

[11] = Vero cell cytotoxicity, dose response, cytotoxicity control for Vif-APOBEC3G degradation inhibitor project, Vero cells (AID 1117358); assay type: functional; settings: Human immunodeficiency virus 1, Vero
[12] = P. falciparum late gametocyte killing, dose response, luminescence (AID 1117278); assay type: functional, cell-based;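 further: gametocytes exposed to compound for 24 hours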
[13] = Jurkat T cell cytotoxicity, dose response, cytotoxicity control for P. falciparum gametocyte viability project, luminescence (AID 1117277); assay type: functional, cell-based;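 further: potency reflects loss of cellular ATP meaning fewer viable cells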

SMILES: Cc1ccc(Nc2n[nH]c(=S)s2)cc1
IC50 [1]: 72.2 µM (active)
IC50 [2]: > 122 µM (inactive)

SMILES: COc1ccc(NC(=O)Nc2ccc3c(c2)[C@@H]2C[C@H](CC(=O)N[C@@H](C)c4ccccc4)O[C@H](CO)[C@@H]2O3)cc1
AC50 [3]: 2.22 µM (active)
AC50 [4]: > 100 µM (inactive)
AC50 [5]: 35.3 µM (active)
AC50 [6]: 2.16 µM (active)
AC50 [7]: 1.62 µM (active)

SMILES: COc1ccc(CCNCc2c(OC)ccc3ccccc23)cc1
IC50 [8]: > 123 µM (inactive)
IC50 [9]: > 123 µM (inactive)

SMILES: COc1ccccc1-n1c(CNCC2CCCO2)nc2ccccc2c1=O (configuration not stated)
IC50 [8]: > 122 µM (inactive)
IC50 [9]: > 122 µM (inactive)

AC50 [10]: 22.4 µM (inconclusive)
SMILES: Cc1ccc(NS(=O)(=O)c2ccc(OCC(=O)Nc3cccc([N+](=O)[O-])c3)c(C)c2)cc1
CC50 [11]: > 40 µM (active)

SMILES: COc1cc(C(=O)N2CCC(n3cnc4cc(F)ccc43)CC2)cc(OC)c1OC
IC50 [12]: > 109 µM (inactive)
IC50 [13]: > 83.3 µM (inactive)

IC50 [8]: 35.7 µM (inactive)
IC50 [9]: > 123 µM (inactive)
SMILES: O=C1CS(=O)(=O)c2ccccc2N1
